Laboratory results as given in US10106491B2, “Substituted biaryl alkyl amides” (BioTheryX, Inc., priority 2011, dated 2018).

Columns and labels:
[1] = system: MDA-MB-468-NFkB-Luc2p cell line; assay: TNF-α induced NFkB reporter assay (luciferase); format: cell-based; conditions: 1 h before 10 ng/ml TNF-α for 6 h, FIG. 3; for result in TNF-α induced NFkB reporter assay: tested at 20 μM and 5 μM
Description: The effects of the compounds described herein on the activation of TNF-mediated pathways were assessed using an MDA-MB-468NFkB-Luc2p reporter cell line (FIG. 3). To construct this cell line, MDA-MB-468 cells were transfected with pGL4.32[luc2P/NF-kB-RE/Hygro] vector (Promega) using TransFast transfection reagent (Promega) according to manufacturer's standard protocol. Briefly, cells were grown in RPMI supplemented with 10% FBS and plated onto sterile 6-well plates (Nunc). When cells became ˜75% confluent, media in each well was removed and replaced with 1 mL RPMI (no FBS) containing […] vector and TransFast for 1 h at 37° C. 2 mL of RPMI with FBS is then added to the well and after 24 h, 500 ug/ml of hygromycin was added for selection to generate a stable reporter cell line.
Stable MDA-MB-468-NFkB-Luc2p cells were plated onto optical-bottom, white wall 96-well plates at 10,000 cells per well and allowed to attach overnight. Compounds B1 through B14 were added at 20 μM and 5 μM respectively for 1 h prior to treatment with 10 ng/ml of recombinant human TNF-α for 6 h. Luciferase signal was determined using the Luciferase Assay System (Promega) and a luminometer.

[2] = system: MDA-MB-468 (breast cancer) cell line; assay: MDA-MB-468 proliferation assay (MTS); format: cell-based; conditions: for growth rate: 72 h, DMSO control = 100%
Description: (§1) Proliferation assays were conducted to assess the effects of the compounds described herein on the growth rate of neoplastic cells. For each of the proliferation assays described herein, SK-MEL-28, MDA-MB-468 or Panc-1 cells were grown in RPMI supplemented with 10% FBS and plated onto sterile 96-well tissue culture plates at 20,000 cells per well and allowed to attach overnight. Compounds B1 through B14 were added at 20 μM and 10 μM respectively in the SK-MEL-28 proliferation assay (FIG. 1). Compounds B3, B5, B7, B11 and B12 were added at 20 μM and 10 μM respectively for the MDA-MB-468 (FIG. 2A) and Panc-1 proliferation assays (FIG. 2B). Plates were incubated for 72 h (37° C., 5% CO2). Percent viability compared to DMSO control was determined using an MTS assay (CellTiter 96 Aqueous, Promega) according to the manufacturer's standard protocol. The standard used in the SK-MEL-28 assay is MG132, a proteasome inhibitor, at 10 uM concentration. It was used as a positive control for cell killing. All the assays are referenced to DMSO as the control at 100% proliferation.

[3] = system: SK-MEL-28 (metastatic melanoma) cell line; assay: SK-MEL-28 proliferation assay (MTS, percent viability vs DMSO); format: cell-based; conditions: 72 h, FIG. 1
Description: as §1

[4] = system: Panc-1 (pancreatic cancer) cell line; assay: Panc-1 proliferation assay (MTS); format: cell-based; conditions: for growth rate: 72 h, DMSO control = 100%
Description: as §1

hCdc34 = target: T1, hCdc34 (Homo sapiens, UniProt P49427); conditions: Ceccarelli et al., Cell 145:1075-1087, 2011; cited from earlier work
T1 sequence (P49427 1-236): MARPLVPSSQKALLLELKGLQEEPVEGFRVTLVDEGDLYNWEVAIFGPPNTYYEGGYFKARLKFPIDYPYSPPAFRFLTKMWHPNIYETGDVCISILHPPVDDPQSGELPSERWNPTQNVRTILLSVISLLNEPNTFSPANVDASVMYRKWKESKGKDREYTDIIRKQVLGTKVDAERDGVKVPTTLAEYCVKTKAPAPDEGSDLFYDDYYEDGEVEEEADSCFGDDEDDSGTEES

[5] = SK-MEL-28, tested at 20 μM and 10 μM

Row | Structure (SMILES) | result in TNF-α induced NFkB reporter assay [1] | growth rate ([2]; MDA-MB-468, 20 μM) [%] | inhibitory effect on proliferation [3, 5] | other results
1 | CCOCC(=O)NC(Cc1ccc(-c2cc(Cl)cc(Cl)c2)cc1)C(O)C(O)C(=O)OCC (centres unmarked) [Compound B1] | good results | – | – | –
2 | CCOC(=O)C(O)C(O)C(Cc1ccc(-c2cc(Cl)cc(Cl)c2)cc1)NC(=O)CCl (centres unmarked) [Compound B3] | – | 5.5 | good inhibitory effect | growth rate ([2]; MDA-MB-468, 10 μM): 6.0%; inhibitory effect on proliferation ([2]; MDA-MB-468, at both concentrations (20 μM and 10 μM)): good inhibitory effect; growth rate ([4]; Panc-1, 10 μM): 4.8%; growth rate ([4]; Panc-1, 20 μM): 5.2%; inhibitory effect on proliferation ([4]; Panc-1, at both concentrations (20 μM and 10 μM)): good inhibitory effect
3 | CCOC(=O)C(O)C(O)C(Cc1ccc(-c2cc(Cl)cc(Cl)c2)cc1)NC(=O)CN (centres unmarked) [Compound B11] | – | – | good inhibitory effect | –
4 | CCOC(=O)C(O)C(O)C(Cc1ccc(-c2cc(Cl)cc(Cl)c2)cc1)NC(=O)CNC(=O)OC(C)(C)C (centres unmarked) [Compound B7] | – | – | good inhibitory effect | –
5 | COCC(=O)N[C@@H](Cc1ccc(-c2cc(Cl)cc(Cl)c2)cc1)[C@H](O)[C@@H](O)C(=O)O [CC0651] | – | – | – | inhibition of hCdc34 (hCdc34): inhibits
6 | CCOC(=O)C(O)C(O)C(Cc1ccc(-c2cc(Cl)cc(Cl)c2)cc1)NC(=O)[C@@H]1CCCN1C(=O)OC(C)(C)C (some centres unmarked) [Compound B5] | good results | 33.5 | good inhibitory effect | –
7 | CCOC(=O)C(O)C(O)C(Cc1ccc(-c2cc(Cl)cc(Cl)c2)cc1)NC(=O)[C@H]1CCCO1 (some centres unmarked) [Compound B4] | good results | – | – | –
8 | CCOC(=O)C(O)C(O)C(Cc1ccc(-c2cc(Cl)cc(Cl)c2)cc1)NC(=O)[C@H](C)N (some centres unmarked) [Compound B12] | – | 11.0 | – | inhibitory effect on TNF-α induced NFkB luciferase signal ([1]; 20 μM): excellent inhibitory effect; fold more effective than the control ([3]; SK-MEL-28, 20 μM): about 20 fold; inhibitory effect on proliferation ([3]; SK-MEL-28, 20 μM): excellent inhibitory effect; growth rate ([4]; Panc-1, 20 μM): 24.4%
